Consider three molecules from patent publication US7265149B2, “Indolyl derivatives” (Hoffmann-La Roche Inc., priority 2004, dated 2007).

pIC50: −log10 of the molar value.

The target of test [1] is T1, PPARγ (Mus musculus, UniProt P37238).
T1 construct: PPARγ (aa 174 to 476); made in house; host or cells: E. coli BL21 (pLysS)
T1 sequence (P37238 174-475 isoform P37238-2): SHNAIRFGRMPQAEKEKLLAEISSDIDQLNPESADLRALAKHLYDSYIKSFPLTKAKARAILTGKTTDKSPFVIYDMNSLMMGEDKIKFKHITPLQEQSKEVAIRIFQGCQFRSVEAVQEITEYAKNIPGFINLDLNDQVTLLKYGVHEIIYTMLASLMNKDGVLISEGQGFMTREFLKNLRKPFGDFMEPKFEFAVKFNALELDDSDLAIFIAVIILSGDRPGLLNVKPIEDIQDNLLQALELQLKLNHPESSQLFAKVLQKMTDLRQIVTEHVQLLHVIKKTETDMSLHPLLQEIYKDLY
Briefly: PPARγ radioligand binding assay (scintillation proximity). Conditions: GST-PPARγ-LBD fusion protein on SPA beads. The text has this: (§1) Background information on the performed assays can be found in: Nichols J S et al. “Development of a scintillation proximity assay for peroxisome proliferator-activated receptor gamma ligand binding domain”, (1998) Anal. Biochem. 257: 112-119.
(§2) Full-length cDNA clones for humans PPARδ and PPARα and mouse PPARγ were obtained by RT-PCR from human adipose and mouse liver cRNA, respectively, cloned into plasmid vectors and verified by DNA sequencing. Bacterial and mammalian expression vectors were constructed to produce glutathione-s-transferase (GST) and Gal4 DNA binding domain proteins fused to the ligand binding domains (LBD) of PPARδ (aa 139 to 442), PPARγ (aa 174 to 476) and PPARα (aa 167 to 469). To accomplish this, the portions of the cloned sequences encoding the LBDs were amplified from the full-length clones by PCR and then subcloned into the plasmid vectors. Final clones were verified by DNA sequence analysis.
(§3) Induction, expression, and purification of GST-LBD fusion proteins were performed in E. coli strain BL21 (pLysS) cells by standard methods (Ref: Current Protocols in Molecular Biology, Wiley Press, edited by Ausubel et al.).
(§4) Radioligand Binding Assay
PPARγ receptor binding was assayed in TKE50 (50 mM Tris-HCl, pH 8, 50 mM KCl, 2 mM EDTA, 0.1 mg/ml fatty acid-free BSA and 10 mM DTT). For each 96 well reaction an 140 ng equivalent of GST-PPARγ-LBD fusion protein was bound to 10 μg SPA beads (PharmaciaAmersham) in a final volume of 50 ul by shaking. The resulting slurry was incubated for 1 h at RT and centrifuged for 2 min at 1300 g. The supernatant containing unbound protein was removed and the semidry pellet containig the recptor-coated beads was resolved in 50 μl of TKE. […] All binding assays were performed in 96 well plates and the amount of bound ligand measured on a Packard TopCount using OptiPlates (Packard). Nonspecific binding was determined in the presence of 10^−4 M unlabelled compound. […]
On the technique in general: Scintillation proximity formats need no separation of bound from free tracer.

In test [2] the target is T2, PPARδ (Homo sapiens, UniProt Q03181).
T2 construct: PPARδ (aa 139 to 442); made in house; host or cells: E. coli BL21 (pLysS)
T2 sequence (Q03181 139-441 limits assumed): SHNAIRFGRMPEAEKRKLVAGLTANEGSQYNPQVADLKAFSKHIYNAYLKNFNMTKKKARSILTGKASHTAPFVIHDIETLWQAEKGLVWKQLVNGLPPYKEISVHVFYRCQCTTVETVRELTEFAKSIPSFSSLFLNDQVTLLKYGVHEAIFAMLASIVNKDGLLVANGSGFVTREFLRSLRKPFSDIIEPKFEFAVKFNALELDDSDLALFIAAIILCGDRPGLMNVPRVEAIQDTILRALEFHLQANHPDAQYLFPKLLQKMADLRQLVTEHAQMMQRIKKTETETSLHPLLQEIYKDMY
Briefly: PPARδ radioligand binding assay (scintillation proximity). Particulars: GST-PPARδ-LBD fusion protein on SPA beads.
Source text: as §1, §2, §3, §4
PPARδ receptor binding was assayed in HNM10 (50 mM Hepes, pH 7.4, 10 mM NaCl, 5 mM MgCl2, 0.15 mg/ml fatty acid-free BSA and 15 mM DTT). For each 96 well reaction a 500 ng equivalent of GST-PPARδ-LBD fusion protein and radioligand, e.g. 20000 dpm {2-methyl-4-[4-methyl-2-(4-trifluoromethyl-phenyl)-thiazol-5-yl-ditritiomethylsulfanyl]-phenoxy}-acetic acid, was bound to 10 μg SPA beads (PharmaciaAmersham) in a final volume of 50 μl by shaking. The resulting slurry was incubated for 1 h at RT and centrifuged for 2 min at 1300 g. […] Radioligand was added and the reaction incubated at RT for 1 h and scintillation proximity counting performed in the presence of test compounds was determined. All binding assays were performed in 96 well plates and the amount of bound ligand was measured on a Packard TopCount using OptiPlates (Packard). […]

Test [3] addresses T3, PPARα (Homo sapiens, UniProt Q07869).
T3 construct: PPARα (aa 167 to 469); made in house; host or cells: E. coli BL21 (pLysS)
T3 sequence (Q07869 167-468 limits assumed): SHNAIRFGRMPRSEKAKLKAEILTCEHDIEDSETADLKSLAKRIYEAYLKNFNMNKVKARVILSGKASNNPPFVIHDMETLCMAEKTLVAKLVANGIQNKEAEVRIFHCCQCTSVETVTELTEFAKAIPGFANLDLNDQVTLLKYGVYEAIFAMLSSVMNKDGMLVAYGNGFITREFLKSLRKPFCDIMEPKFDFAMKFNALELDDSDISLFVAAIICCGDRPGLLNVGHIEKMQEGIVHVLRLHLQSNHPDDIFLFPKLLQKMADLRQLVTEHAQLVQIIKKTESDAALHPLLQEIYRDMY
Briefly: PPARα radioligand binding assay (scintillation proximity). Conditions: GST-PPARα-LBD fusion protein on SPA beads.
Source text: as §1
as §2, with “analysis. […]” for “analysis.”
PPARα receptor binding was assayed in TKE50 (50 mM Tris-HCl, pH 8, 50 mM KCl, 2 mM EDTA, 0.1 mg/ml fatty acid-free BSA and 10 mM DTT). […] All binding assays were performed in 96 well plates and the amount of bound ligand measured on a Packard TopCount using OptiPlates (Packard). Nonspecific binding was determined in the presence of 10^−4 M unlabelled compound. […]

`Cc1c(-c2ccc(Cl)cc2)nn(C)c1COc1ccc2ccn(CC(=O)O)c2c1` [Example 2, {6-[5-(4-Chloro-phenyl)-2,4-dimethyl-2H-pyrazol-3-ylmethoxy]-indol-1-yl}-acetic acid]: the pIC50 in test [1] was no more than 5.00; in test [2] it was 6.85.

For the molecule `Cn1nc(-c2ccc(C(F)(F)F)cc2)c(Br)c1COc1ccc2ccn(CC(=O)O)c2c1` [Example 8, {6-[4-Bromo-2-methyl-5-(4-trifluoromethyl-phenyl)-2H-pyrazol-3-ylmethoxy]-indol-1-yl}-acetic acid], the negative logarithm of the IC50 (pIC50) in test [3] is 5.59; in test [1], no more than 5.00; in test [2], 8.40.

As to `Cn1nc(-c2ccc(OC(F)(F)F)cc2)cc1CCCOc1ccc2ccn(CC(=O)O)c2c1` [Example 20, (6-{3-[2-Methyl-5-(4-trifluoromethoxy-phenyl)-2H-pyrazol-3-yl]-propoxy}-indol-1-yl)-acetic acid], the results for the negative logarithm of the IC50 (pIC50) in test [3], in test [1] and in test [2] were 7.89, no more than 5.00 and 7.37, respectively.

By pIC50 is commonly meant the IC50 on a negative log10 scale, so that one unit is a factor of ten. High values mean a small IC50, low ones a large IC50.
